Laboratory results reported in patent US7704695B2, “Screening of compounds for BGT1 transporter activity” (XenoPort, Inc., priority 2005, dated 2010).

Key:
Assay type in all cases: cell-based
hBGT1 [1] = molecular target: T1, hBGT1 (Homo sapiens, UniProt P48065); experiment: hBGT1 direct uptake assay (LC-MS-MS); design: expressed in transfected cells; host or cells: HEK-TREx cells (HEK-TREx-BGT1 inducible line), induced with tetracycline/doxycycline and butyrate; settings: HEK-TREx-hBGT1 cells induced to express hBGT1
T1 sequence (P48065 1-614): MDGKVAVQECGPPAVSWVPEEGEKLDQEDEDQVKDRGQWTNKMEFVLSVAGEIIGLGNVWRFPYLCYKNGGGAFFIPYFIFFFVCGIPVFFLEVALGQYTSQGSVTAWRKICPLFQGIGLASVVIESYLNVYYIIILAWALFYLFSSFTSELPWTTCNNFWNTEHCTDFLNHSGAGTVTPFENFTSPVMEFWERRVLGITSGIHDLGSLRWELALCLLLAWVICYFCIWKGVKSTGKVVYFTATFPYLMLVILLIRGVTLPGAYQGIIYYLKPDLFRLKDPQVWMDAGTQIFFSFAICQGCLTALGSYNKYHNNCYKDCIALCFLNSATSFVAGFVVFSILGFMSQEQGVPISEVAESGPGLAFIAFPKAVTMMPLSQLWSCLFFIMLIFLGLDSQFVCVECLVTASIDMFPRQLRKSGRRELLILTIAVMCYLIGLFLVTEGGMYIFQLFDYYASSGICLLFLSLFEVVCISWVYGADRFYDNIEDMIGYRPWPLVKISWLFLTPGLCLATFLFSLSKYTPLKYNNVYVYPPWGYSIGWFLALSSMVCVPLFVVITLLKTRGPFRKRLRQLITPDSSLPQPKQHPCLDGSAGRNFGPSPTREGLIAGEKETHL
Procedure: Four concentrations (bracketing the affinity as measured by competition assays) per compound were routinely tested. Non-specific uptake was determined by measuring the uptake into cells not induced to express the transporter (“no tet”).
Typically, four concentrations bracketing the IC50 were tested. […] The samples were robustly vortexed and centrifuged for 10 minutes at 13,200 rpm to spin down any precipitate. […] Three additional 2-fold dilutions were made in the subsequent rows (B-D or […]) in HBSS.
An internal standard of 50 μM propranolol in 50:50 ethanol:water was also prepared.
The cells were washed twice in room temperature HBSS (100 μl/well/wash) using a 96-well plate washer (Bio Tek ELX405). Alternatively, cells were washed manually with equivalent volumes using a multichannel pipettor. Immediately before the assay was begun, the final 100 μl wash solution was removed from the cells.
After the final wash, as much of the wash buffer as possible was removed by aspirating the wells with a probe that reached the bottom of the wells. (Residual salts from the wash buffer can adversely affect the LC-MS-MS by disrupting the LC method or by suppressing the MS signal.) 150 μl of a 50:50 ethanol:water solution was added to each well to lyse the cells and extract the test compound. The plate was covered and allowed to sit for 20 minutes at room temperature to ensure cell lysis. […]

hBGT1 [2] = molecular target: T1, hBGT1; experiment: hBGT1 competition uptake assay (inhibition of 3H-GABA uptake); design: expressed in transfected cells; host or cells: HEK-TREx cells (HEK-TREx-BGT1 inducible line), induced with tetracycline/doxycycline and butyrate; settings: HEK-TREx-BGT1 cells induced to express BGT1; FIG. 2
Procedure: Alternatively, cells were washed manually with equivalent volumes using a multichannel pipettor.
Non-specific uptake was determined by measuring the uptake into cells not induced to express the transporter (“no tet”).

hBGT1 [3] = molecular target: T1, hBGT1; experiment: Oocyte uptake assay with BGT1 cRNA-injected Xenopus oocytes; design: expressed in transfected cells; host or cells: Xenopus oocytes injected with in vitro transcribed BGT1 cRNA; settings: oocytes expressing BGT1 protein
Procedure: For expression in Xenopus oocytes, in vitro BGT1 cRNA is prepared and injected into defoliculated oocytes.
To measure directly the uptake of possible substrates, an oocyte uptake assay is performed in which uptake of compounds is measured by mass spectroscopy. […] Oocytes injected with BGT1 cRNA are incubated at 16-18° C. until maximal transporter expression is reached. Oocytes from the same batch, not injected with cRNA, can be used as a control. […] Subpools are homogenized in 150 μl of ice cold 80% MeOH/H2O and lysed manually.

SMILES	Direct Uptake Vmax (hBGT1 [1])	Effect of unlabeled competitor on uptake of labeled GABA (hBGT1 [2])	3H-GABA uptake versus noninjected controls (hBGT1 [3])
NCCCC(=O)O [GABA, γ-aminobutyric acid]	110 pmol/min/well	the uptake of labeled GABA decreased as the concentration of unlabeled GABA increased	
NCCCC(=O)O [^3H-GABA]			higher levels of ^3H-GABA uptake than noninjected controls
